According to patent US20240117303A1, “METHODS AND COMPOSITIONS FOR GENERATING HUMAN MIDBRAIN DOPAMINERGIC NEURONS FROM NEURAL PROGENITOR CELLS” (Trailhead Biosystems Inc., priority 2022, published 2024):

How the values were obtained:
[1] = tested on: stage 2 neural progenitors; experiment: HD-DoE 12-factor model for stage 3 recipe (FIG. 19-23, 29); format: cell-based, human
stage 3 immature neurons = experiment: HD-DoE 8-factor experiment for stage 4 recipe (FIG. 27, 28, 31); format: cell-based, human
Outline: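 Stage 3 cells treated 4 days with combinatorial matrices including CHIR99021, BDNF, GDNF, Rosiglitazone, GW7647, DBZ and heparin, then gene expression (NR4A2, PITX3, TH) measured. Dropout tests removed each of six finalized factors singly, comparing NR4A2 and PITX3 against the full set.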

Cc1c[nH]c(-c2cnc(NCCNc3ccc(C#N)cn3)nc2-c2ccc(Cl)cc2Cl)n1 [CHIR99021]
impact on expression of KCNJ6 ([1]; dynamic profile, 12 effectors): positive impact
factor contribution ([1]; model maximizing expression of CORIN, negative impact): 10.9
factor contribution ([1]; model optimized for maximum expression of KCNJ6, positive regulators): 10.7
expression level of KCNJ6 in absence of the factor ([1]; stage 3 recipe, other factors present, 50 with all factors): 50
expression level of SOX6 in absence of the factor ([1]; stage 3 recipe, other factors present, 105 with all factors): 125
expression level of MSX1 in absence of the factor ([1]; stage 3 recipe, other factors present, 140 with all factors): 115
expression level of CORIN in absence of the factor ([1]; stage 3 recipe, other factors present, 900 with all factors): 1200
impact on expression level of PITX3 (stage 3 immature neurons; dynamic profile, 8 effectors): did not have a meaningful effect
factor contribution (stage 3 immature neurons; model maximized for NR4A2, negative impact): 20.7
